Laboratory results reported in patent publication US20060183889A1, “Alkyl phosphine detergent products and extraction processes” (priority 2005, published 2006).
Peptide text beside a SMILES is read from it.

How the values were obtained:
[1] = cited from earlier work
[2] = system: uninduced BL21 Star cells; experiment: Screening of detergents: lysis of uninduced cell cultures analysed by PAGE; type: cell-based, E. coli; conditions: for lysis of uninduced BL21 Star cells by PAGE (FIG. 1) / lysis capabilities by PAGE (FIG. 2) / lysis performance: 1% detergent in 50 mM phosphate; for lysis of uninduced BL21 Star cells by PAGE (FIG. 1) / lysis performance: 300 mM NaCl pH 7; for lysis capabilities by PAGE (FIG. 2): 300 mM NaCl pH=7, alkyl chain length 9-11; for lysis performance: compared with BugBuster; for lysis of bacterial cells: 1% detergent in 50 mM phosphate pH 7, uninduced cell cultures, compared with BugBuster and B-Per
Description: (§1) Cultures were grown to OD600=1.2-1.5 and then collected for lysis. One ml of culture was subjected to centrifugation (10,000×g) and lysed in 75 to 100 μl of each lysis buffer depending on optical density (OD). In some samples 10 μl of 1:100 dilution of BENZONASE® nuclease (Benzon Pharma A/S) and 10 μl of 0.5 mg/ml Lysozyme were added. Samples were allowed to incubate at room temperature for approximately 10 minutes, then spun down at 10,000×g. Supernatant was pipetted and used for subsequent activity assays and SDS-PAGE analysis. For BL21 (DE3) pLysS cultures, 2 independent lysates of each culture with and without lysozyme were prepared and tested.
(§2) For gel electrophoresis, 15 μL of each lysate was incubated with 5 μl of 4× LDS Sample buffer and 2 μl of NuPage Reducing reagent in a 70° C. heat block for 10 minutes. 5 μl of the samples were run on 4-12% NuPAGE gels (Invitrogen cat # NP0321 or NP0323) with MES SDS running buffer. SDS-PAGE gels were stained with SimplyBlue Safe Stain (Invitrogen cat# LC6065).
Screening of a wide range of detergents was performed by evaluating the lysis of uninduced cell cultures. For the first round of screening, detergents from different chemical groups were evaluated starting with some well-known detergents such as Triton X-100, Elugent, NP-7, NP-40. The lysis buffers were prepared at 1% detergent concentration in 50 mM phosphate pH 7. The detergents were compared with known lysis procedures using BugBuster® lysis reagent (Novagen), B-Per™ protein extraction reagent (Pierce), Relay 96 Protein Screen (Invitrogen), and sonication.
Other types of detergents also screened were ASB-C8 and three other synthesized sulfobetaine detergents: SB-A, SB-B, and SB-C, as well as APO-8, APO-10, APO-12 and N-dodecanoyl sucrose as 1% detergent solutions in 50 mM phosphate, 300 mM NaCl pH 7) using BL21 Star cells. […] Lane 1 is a Mark 12 Molecular Weight Standard; lane 2 is a 1% SB-A lysis solution; lane 3 is a 1% ASB-C8 lysis solution; lane 4 is a 1% SB-B lysis solution; lane 5 is a 1% SB-C lysis solution; lane 6 is a 1% APO-8 lysis solution; lane 7 is a 1% APO-10 lysis solution; lane 8 is a 1% APO-12 lysis solution; lane 9 is a 1% N-Dodecanoyl Sucrose lysis solution and lane 10 is BugBuster® HT lysis reagent. […] It is likely that the length of the alkyl chain is critical for the lysis ability of the detergent. Therefore, another round of testing was performed with detergents of the same type with alkyl chains one […] smaller and bigger than APO-10. […] One percent detergent formulations were prepared in 50 mM phosphate, 300 mM NaCl pH=7. In FIG. 2, Lane 1 is a Mark 12 Molecular Weight Standard; lane 2 is BugBuster® HT; lane 3 is a 1% APO-9 lysis solution; lane 4 is a 1% APO-10 lysis solution and lane 5 is a 1% APO-11 lysis solution.

[3] = system: BL-21-AI, BL-21-Star, BL-21 DE3; experiment: Side by side comparison of alkylglucoside and alkylphosphine detergents as lysis reagents; type: cell-based, E. coli; conditions: several cell types: BL-21-AI
Description: as §1, §2
Side by side comparison testing was performed of the alkylglucoside and alkylphosphine detergents with several different cell types: BL-21-AI, BL-21-Star, BL-21 DE3. In this comparison testing BugBuster® HT lysis reagent (Novagen), B-Per™ protein extraction reagent (Pierce), n-octyl-β-D-glucopyranoside, n-nonyl-β-D-glucopyranoside, and n-octyl-β-D-thioglucopyranoside, APO-9 and APO-10 were utilized. […] Further optimization and testing was concentrated on the use of APO detergents by themselves and in combination with other detergents.

[4] = system: BL21-AI cells expressing GFP; experiment: Lysis of cells expressing GFP, fluorescence of lysate; type: cell-based, E. coli; conditions: 0.5% in 50 mM Tris pH=7; normalized to BugBuster; average of multiple treatments
Description: (§3) E. coli strain BL21 cells were transformed with plasmids expressing β-galactosidase, green fluorescent protein (GFP) or maltose binding protein (MBP) as follows. BL21-AI were transformed with pET 100 expressing n-terminal 6×His tagged GFP or n-terminally 6×His tagged LacZ (β-galactosidase). The cells were grown at 37° C. to OD600=0.4-0.5 and then induced with 1 mM IPTG and 0.1% arabinose. The expression was performed for 2-4 hours at 37° C. BL21 Star cells were transformed with plasmid expressing MBP. The cells were grown at 37° C. to OD600=0.4-0.5 and then induced with 1 mM IPTG. Protein expression was performed at 30° C. for 2-4 hours. […]
(§4) GFP activity was determined by reading fluorescence (Excitation at 395/Emission […]) of lysates (diluted 1:20 or 1:40 in 50 mM Phosphate pH 7). The raw data was recorded. LacZ activity was determined by using the β-galactosidase assay kit (IVGN cat # K1455-01). The lysate samples were diluted 1:100 and then analyzed as described in the kit manual. Results were obtained using OD420 readings in the following equation: nmoles of ONPG hydrolyzed/μL lysate=(OD420background) (1.92×10^5 nl)(dilution factor=100) (4500 nl/nmoles-cm)×(1 cm) Data was normalized to the reading received from a control sample prepared with BugBuster® or BugBuster® HT (Novagen) lysis reagents. […]

[5] = system: BL21- AI cells expressing β-galactosidase; experiment: Lysis of cells expressing β-galactosidase, β-galactosidase activity of lysate; type: cell-based, E. coli; conditions: 0.5% APO detergent formulation; lysozyme in the lysis buffer
Description: as §3, §4

BL21 Star cultures = experiment: MBP extraction evaluated qualitatively by SDS PAGE; type: cell-based, E. coli; conditions: qualitative
Description: as §3, with “hours. BL-21(DE3) and BL-21(DE3)pLysS cells were transformed with vector expressing N-terminally 6×His tagged LacZ (β-galactosidase) (pET 100 lacZ-IVGN cat# K100-01), N-terminal Lumio tag (Cys-Cys-Pro-Gly-Cys-Cys) and 6×His tagged Lac-Z (pET 160 LacZ), and N-terminal Lumio tag (Cys-Cys-Pro-Gly-Cys-Cys) and 6×His tagged GFP (pET 160 GFP).” for “hours.”
Following preliminary screening, more detailed testing was performed using GFP, β-galactosidase and MBP expressed in E. coli. […] The activity of the β-galactosidase was measured using the β-galactosidase activity kit (Invitrogen) as described above. The GFP activity (native state) was tested by measuring the fluorescence of the protein as described above. MBP extraction was evaluated qualitatively by SDS PAGE gel electrophoresis.

NC(=O)CN(CC(=O)O)CC(=O)O [ADA]
pKa(4° C.) [1]: 6.80 | pKa(20° C.) [1]: 6.60 | pKa(37° C.) [1]: 6.43 | Temperature Coefficient (↑pKa/° C.) [1]: 0.011 ↑pKa/° C.

CCCCCCCCP(C)(C)=O [APO-8, Dimethyloctylphosphine oxide]
lysis of uninduced BL21 Star cells by PAGE (FIG. 1) [2]: did not lyse the cells efficiently

CCCCCCCCCP(C)(C)=O [APO-9, Dimethylnonylphosphine oxide]
performance as lysis reagent [3]: performed well | lysis capabilities by PAGE (FIG. 2) [2]: optimal lysis capabilities

CCCCCCCCCCP(C)(C)=O [APO-10, Dimethyldecylphosphine oxide]
difference of GFP fluorescence result from the BugBuster reagent (FIG. 3) [4]: ≤ 7% | difference of β-galactosidase extraction performance from the BPER-2 reagent (FIG. 4) [5]: ≤ 5% | performance as lysis reagent [3]: performed well | MBP extraction (BL21 Star cultures): similarly or slightly better | lysis of uninduced BL21 Star cells by PAGE (FIG. 1) [2]: performed very well | lysis capabilities by PAGE (FIG. 2) [2]: optimal lysis capabilities

CCCCCCCCCCCCP(C)(C)=O [APO-12, Dimethyldodecylphosphine oxide]
lysis of uninduced BL21 Star cells by PAGE (FIG. 1) [2]: did not lyse the cells efficiently

O=S(=O)(O)CCN(CCO)CCO [BES]
pKa(4° C.) [1]: 7.41 | pKa(20° C.) [1]: 7.5 | pKa(37° C.) [1]: 6.88 | Temperature Coefficient (↑pKa/° C.) [1]: 0.016 ↑pKa/° C.

O=C(O)CN(CCO)CCO [Bicine]
pKa(4° C.) [1]: 8.64 | pKa(37° C.) [1]: 8.04 | Temperature Coefficient (↑pKa/° C.) [1]: 0.018 ↑pKa/° C.

Cl.NCC(N)=O [Glycinamide HCL]
pKa(4° C.) [1]: 8.66 | pKa(20° C.) [1]: 8.20 | pKa(37° C.) [1]: 7.71 | Temperature Coefficient (↑pKa/° C.) [1]: 0.029 ↑pKa/° C.

NCC(=O)NCC(=O)O [Glycylglycine] (H-Gly-Gly-OH)
pKa(4° C.) [1]: 8.85 | pKa(37° C.) [1]: 7.92 | Temperature Coefficient (↑pKa/° C.) [1]: 0.028 ↑pKa/° C.

O=S(=O)(O)CCCN1CCN(CCO)CC1 [HEPPS]
pKa(4° C.) [1]: 8.18 | pKa(20° C.) [1]: 8.00 | pKa(37° C.) [1]: 7.81 | Temperature Coefficient (↑pKa/° C.) [1]: 0.011 ↑pKa/° C.

O=S(=O)(O)CCNC(CO)(CO)CO [TES]
pKa(4° C.) [1]: 7.82 | pKa(20° C.) [1]: 7.50 | pKa(37° C.) [1]: 7.16 | Temperature Coefficient (↑pKa/° C.) [1]: 0.020 ↑pKa/° C.

O=C(O)CNC(CO)(CO)CO [TRICINE]
pKa(4° C.) [1]: 8.49 | pKa(37° C.) [1]: 7.79 | Temperature Coefficient (↑pKa/° C.) [1]: 0.021 ↑pKa/° C.

CCCCCCCCCCCCO[C@@H]1O[C@H](CO)[C@@H](O[C@H]2O[C@H](CO)[C@@H](O)[C@H](O)[C@H]2O)[C@H](O)[C@H]1O [n-dodecyl-β-D-maldoside]
lysis performance [2]: good lysis performance

CCCCCCCCCO[C@@H]1O[C@H](CO)[C@@H](O)[C@H](O)[C@H]1O [n-nonyl-β-D-glucopyranoside]
performance as lysis reagent [3]: performed well | lysis performance [2]: good lysis performance

CCCCCCCCO[C@@H]1O[C@H](CO)[C@@H](O)[C@H](O)[C@H]1O [n-octyl-β-D-glucopyranoside]
performance as lysis reagent [3]: performed well | MBP extraction (BL21 Star cultures): comparable | lysis performance [2]: good lysis performance

CCCCCCCCS[C@@H]1O[C@H](CO)[C@@H](O)[C@H](O)[C@H]1O [n-octyl-β-D-thioglucopyranoside]
performance as lysis reagent [3]: performed well | lysis performance [2]: good lysis performance

N-dodecanoyl sucrose
lysis of uninduced BL21 Star cells by PAGE (FIG. 1) [2]: did not lyse the cells efficiently

NP-40
lysis of bacterial cells [2]: not be very efficient

Triton X-100
lysis of bacterial cells [2]: not be very efficient
